Experimental data taken from publication PMC4279419, “Angiostatic, tumor inflammatory and anti-tumor effects of CXCL4^47–70 and CXCL4L1^47–70 in an EGF-dependent breast cancer model” (Oncotarget, 2014).
Read-outs that look alike come from different tables or passages of the source. Where no end group is shown, it is not given here.

How the values were obtained:
[1] = tested on: human acute monocytic leukemia cells (THP-1); experiment: Transendothelial multiscreen chemotaxis assay; type: cell-based; conditions: HMVEC monolayer, n=3 to 4; for effect on CCL5-induced transendothelial migration: peptide 1000 to 5000 ng/ml + CCL5 20 ng/ml, 3 to 5 hours, 37°C, ATPlite
Procedure: Monocyte chemotaxis assays were performed on 5 μm hydrophilic polycarbonate multiscreen-MIC plates (Millipore) using the human acute monocytic leukemia cells (THP-1). To promote efficient synergy between CCL5 on one hand and CXCL4, CXCL4^47–70 or CXCL4L1^47–70 on the other hand, the upper compartment of these plates was coated with a HMVEC monolayer. HMVEC were seeded on a 0.1% gelatin layer 24 hours prior to the chemotaxis assay. The following day, dilutions of recombinant human CCL5 (PeproTech, Rocky Hill, CT), natural human CXCL4 (isolated from stimulated platelets as previously described), recombinant human CXCL4L1 (isolated from baculovirus-infected Sf9 cells as previously described), synthetic CXCL4^47–70, synthetic CXCL4L1^47–70 (both produced as described above), or combinations thereof were added to the lower compartment of the plate, in a volume of 150 μl. After removal of the HMVEC medium, 0.35 × 10^6 THP-1 cells were added to the upper wells, resuspended in phenol red-free RPMI + 0.1 g/100 ml BSA (endotoxin-free BSA; Sigma CatN° A8806) after centrifugation of the cells at 200g for 10 min. Plates were incubated at 37°C for 3 to 5 hours before quantifying the amount of cells that migrated towards the chemokine concentrations. For that purpose, we used the ATPlite kit (PerkinElmer, Waltham, MA) allowing quantitative luminescent detection of ATP, which is representative of THP-1 cell counts in the lower wells. This reaction was performed in a view white 96-well plate (PerkinElmer). A chemotactic index (CI) was calculated, defined as the ratio of luminescence after chemokine treatment and luminescence after control treatment.

[2] = tested on: MDA-MB-231 cells; experiment: MDA-MB-231 MTT proliferation assay; type: cell-based, human; conditions: control PI=1, DMEM + 1% FCS, 3 to 4 days, mean ± s.e.m.
Procedure: (§1) First, HMVEC and HLEC were seeded at 5 × 10^3 cells/well in EBM-2 + 1% FCS in a 96-well plate, whereas MDA-MB-231 were starved of growth factors overnight by replacing their growth medium with DMEM (serum-free) prior to seeding the tumor cells at 15 × 10^2 cells/well in DMEM + 1% FCS. As for the rest of the assay, the same protocol applies to all cells. Once adherent, cells were incubated with different concentrations of the peptides CXCL4^47–70 and CXCL4L1^47–70 as single stimuli or in combination with recombinant human EGF (3 ng/ml; R&D Systems, Minneapolis, MN) at 37°C/5% CO2. All conditions were tested in triplicate or quadruplicate. After 3 to 4 days, stimulation medium was removed and a sterile MTT solution was added [0.04 g/100 ml thiazolyl blue (Sigma-Aldrich, St. Louis, MO) in 20% PBS/80% RPMI without phenol red (Lonza)] for 3 to 4 hours. The formed formasan crystals were dissolved by replacing the MTT solution with acidic propanol (0.04 M HCl, 0.1% (v/v) Nondet P-40 in absolute isopropanol) and shaking the plate, shielded from light, for 10 minutes. Optical density (OD) was determined at 570 nm and 630 nm. The obtained ODs were processed to proliferation indexes (PI), expressed relative to appropriate buffer controls, i.e. ΔOD570–630X over ΔOD570–630CO.

[3] = tested on: human retinal microvascular endothelial cells (HMVEC); experiment: HMVEC MTT proliferation assay; type: cell-based; conditions: control PI=1, 3 to 4 days, MTT, mean ± s.e.m.; for Proliferation index (PI), baseline (single stimulus): no growth factor
Procedure: as §1

[4] = SPR (BIAcore) binding to immobilized heparin; conditions: for Dissociation rate (Koff): BIAcore X100, HBS-EP+ pH 7.4; for Association rate (Kon): BIAcore X100, HBS-EP+ pH 7.4, 2 min injection, 30 μl/min
Procedure: Next, we exploited surface plasmon resonance (SPR) analysis to assess the capacity of CXCL4^47–70 and CXCL4L1^47–70 to bind heparin immobilized to a BIAcore sensorchip, a model that mimics the binding of proteins to heparan sulphate proteoglycans associated to the cell surface. When increasing concentrations of the two peptides were injected onto the heparin surface, sensorgram overlays (not shown) allowed the calculation of association (Kon) and dissociation (Koff) rates and of Kd (as Koff/Kon ratio, Table 1). Also, equilibrium binding data were used to generate the saturation curves shown in Figure 8A and used to calculate a Kd value independently from kinetic parameters (Table 1).
SPR measurements were performed on a BIAcore X100 instrument (GE-Healthcare, Milwaukee, WI). Research-grade SA sensorchip was used. For the study of the interaction of heparin with CXCL4^47–70 and CXCL4L1^47–70, heparin was immobilized to a BIAcore sensorchip. Briefly, 13600 Da unfractionated heparin was biotinylated at its reducing end and immobilized onto the SA streptavidin-coated sensorchip. These experimental conditions allowed the immobilization of 200 resonance units (RU) equal to 14.7 fmol/mm^2 of heparin. A sensorchip coated with streptavidin alone was used as a reference and for blank subtraction. The peptides were dissolved in 10 mM HEPES buffer pH 7.4 containing 150 mM NaCl, 3 mM EDTA, 0.05% surfactant P20 (HBS-EP+) and injected at different concentrations over the heparin or streptavidin surfaces for 2 min at a flow rate of 30 μl/min and then washed until dissociation was observed. After each run, the sensorchip was regenerated by injection of HBS-EP+ containing 2.0 M NaCl.

[5] = tested on: CHO/CXCR3B cells; experiment: CXCR3B binding (flow cytometry); conditions: NH2-terminally biotinylated peptides, 3 to 3000 ng/ml, data not shown
Source text: We further tried to reveal the mode of action of CXCL4^47–70 and CXCL4L1^47–70. First, we excluded that either peptide still binds/activates one of the CXCR3 isoforms, the receptors for intact CXCL4 and CXCL4L1.

[6] = peptide 3 μg/ml, n=7 in triplicate, p<0.001
[7] = peptide 10 μg/ml, in triplicate, n=3, p<0.001 (CXCL4^47–70), n=7, p=0.01 (CXCL4L1^47–70)
[8] = peptide 0.3 μg/ml + EGF 3 ng/ml, n=7, p=0.015 (CXCL4^47–70), p=0.041 (CXCL4L1^47–70) versus EGF
[9] = peptide 1 μg/ml + EGF 3 ng/ml, n=7, p=0.003 (CXCL4^47–70), p=0.015 (CXCL4L1^47–70) versus EGF
[10] = peptide 1 μg/ml, n=8, p=0.011 (CXCL4^47–70), p=0.043 (CXCL4L1^47–70)
[11] = peptide 3 μg/ml + EGF 3 ng/ml, n=6, p=0.008 (CXCL4^47–70), n=7, p=0.041 (CXCL4L1^47–70) versus EGF
[12] = peptide 3 μg/ml, n=6, p=0.001 (CXCL4^47–70), n=7, p=0.009 (CXCL4L1^47–70)
[13] = BIAcore X100, HBS-EP+ pH 7.4, Scatchard plot analysis of equilibrium binding data, read-out: Kd at equilibrium
[14] = BIAcore X100, HBS-EP+ pH 7.4, from Koff/Kon ratio, read-out: Kd (Koff/Kon)
[15] = BIAcore X100, kinetic and equilibrium values taken together, read-out: Kd (range over both methods)

| Substance | effect on CCL5-induced transendothelial migration [1] | Proliferation index (PI) [2, 6] | Proliferation index (PI) [2, 7] | Proliferation index (PI) ([2]; peptide 30 μg/ml, n=3 in triplicate, p<0.001) | Proliferation index (PI), EGF-stimulated [3, 8] | Proliferation index (PI), EGF-stimulated [3, 9] | Proliferation index (PI), baseline (single stimulus) [3, 10] | Proliferation index (PI), EGF-stimulated [3, 11] | Proliferation index (PI), baseline (single stimulus) [3, 12] | Dissociation rate (Koff) [4] | Association rate (Kon) [4] | Kd [4, 13] | Kd [4, 14] | Kd [4, 15] | specific binding to CHO/CXCR3B [5] | stimulation of monocytic cell chemotaxis compared to CXCL4L1^47–70 ([1]; peptide 1000 to 5000 ng/ml with CCL5 20 ng/ml) | Proliferation index (PI) ([2]; peptide 0.3 μg/ml, n=7 in triplicate, p=0.023) |
| --- | --- | --- | --- | --- | --- | --- | --- | --- | --- | --- | --- | --- | --- | --- | --- | --- | --- |
| CXCL4L1^47–70: synthetic human carboxy-terminal peptide restricted to the last 24 amino acids of CXCL4L1, Fmoc chemistry | enhanced transendothelial migration of monocytic cells | 0.78 ± 0.04 | 0.76 ± 0.08 | 0.26 ± 0.04 | 1.17 ± 0.06 | 1.05 ± 0.07 | 0.86 ± 0.12 | 0.98 ± 0.13 | 0.70 ± 0.09 | 0.053 s⁻¹ | 52000 M⁻¹ s⁻¹ | 1200 nM | 1000 nM | 1000 to 1200 nM | could not detect specific binding |  |  |
| CXCL4^47–70: synthetic human carboxy-terminal peptide restricted to the last 24 amino acids of CXCL4, Fmoc chemistry (NGRKICLDLQAPLYKKIIKKLLES; not fully specified (N-terminus)) | enhanced transendothelial migration of monocytic cells | 0.66 ± 0.04 | 0.21 ± 0.05 |  | 1.13 ± 0.07 | 0.96 ± 0.06 | 0.77 ± 0.08 | 0.93 ± 0.07 | 0.59 ± 0.09 | 0.011 s⁻¹ | 670000 M⁻¹ s⁻¹ | 72 nM | 16 nM | 16 to 72 nM | could not detect specific binding | more efficiently stimulated monocytic cell chemotaxis compared to CXCL4L1^47–70 | 0.87 ± 0.04 |
